This note sets out measurements from PubChem BioAssay (NCI).

Test systems include SW-620 colon; A549 NSCLC; MCF7 breast; SK-MEL-28 melanoma; OVCAR-3 ovarian; MALME-3M melanoma; NCI-H226 lung; OVCAR-5 ovarian; OVCAR-4 ovarian; SF-539 CNS; HCC-2998 colon; RXF 393 renal.
Common to all, as to experiment: NCI-60 cell line screen, 48 h

Values joined by “and” are separate entries in the source; they are usually repeats but may differ in a detail not shown here. Identical values can stand only once.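 Cells were grown in 96-well plates and exposed to each compound for 48 hours at five concentrations; endpoints were interpolated linearly between bracketing concentrations, or set to the highest concentration if not reached. Abbreviation: GI50, concentration required for 50% inhibition of growth. TGI is the concentration that stops growth completely.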 Peptide text beside a SMILES is read from it. * marks the point of attachment. Boc = CC(C)(C)OC(=O)*; OBn = c1ccc(CO*)cc1

As for `CSC1=N/C(=C\c2ccco2)C(=O)N1CN1CCCCC1`, the TGI with SW-620 colon, in the assay with A549 NSCLC, in the assay with MCF7 breast, in the assay with SK-MEL-28 melanoma, in the assay on OVCAR-3 ovarian and in the assay with MALME-3M melanoma was over 100 µM throughout. Besides, the TGI in the assay with NCI-H226 lung and in the assay with OVCAR-5 ovarian was over 100 µM each time.

In the case of `O=C(C1C(c2ccccc2)N1C(c1ccccc1)c1ccccc1)C1C(c2ccccc2)N1C(c1ccccc1)c1ccccc1` (stereo unspecified), the TGI in the assay on OVCAR-4 ovarian was over 100 µM; in the assay with SW-620 colon it was 37.2 µM; with A549 NSCLC, over 100 µM; in the assay on MCF7 breast it was 22.4 µM; in the assay with SK-MEL-28 melanoma, 36.1 µM; with SF-539 CNS it was 43.4 µM. The values for the TGI in the assay with OVCAR-5 ovarian and in the assay on HCC-2998 colon were 81.2 µM and 37.8 µM, respectively.

In the case of `CCCCCCCCC/C=C1\CC(CO)(COC(=O)C2CCCCC2)OC1=O` (stereo unspecified), the TGI came to 49.3 µM in the assay with OVCAR-4 ovarian; 33.1 µM in the assay with SW-620 colon; 48.3 µM with A549 NSCLC; 43.9 µM in the assay with MCF7 breast; 38.7 µM in the assay with RXF 393 renal; 30.5 µM in the assay on SK-MEL-28 melanoma. Besides, the TGI with OVCAR-3 ovarian was determined as 33.4 µM; in the assay on MALME-3M melanoma it was 31.9 µM; in the assay with NCI-H226 lung, 74.4 µM; with OVCAR-5 ovarian it was 38 µM; with HCC-2998 colon, 42.3 µM.

With `CC(NC(=O)CNC(=O)OC(C)(C)C)C(=O)NC(Cc1ccccc1)C(=O)OCc1ccccc1` (stereo not drawn) (Boc-Gly-Ala-Phe-OBn; configuration not given here), the TGI in the assay on OVCAR-4 ovarian, in the assay with SW-620 colon, in the assay on A549 NSCLC, in the assay with MCF7 breast, in the assay with RXF 393 renal and with SK-MEL-28 melanoma was over 100 µM in each case. Moreover, the TGI in the assay on MALME-3M melanoma, in the assay with NCI-H226 lung, in the assay with SF-539 CNS and with OVCAR-5 ovarian was over 100 µM each time.

For `Cn1c(Nc2ccccc2)c(C=Nc2ccccc2)c(=O)n(C)c1=O`, the TGI in the assay on OVCAR-4 ovarian, in the assay with SW-620 colon, in the assay on A549 NSCLC, in the assay with MCF7 breast, in the assay with RXF 393 renal and in the assay with SK-MEL-28 melanoma was over 100 µM each time. Further, the TGI in the assay on OVCAR-3 ovarian, in the assay with SF-539 CNS and in the assay on OVCAR-5 ovarian was over 100 µM throughout.

For `CCSC1=N/C(=C\c2ccco2)C(Cl)=N1`, the TGI with SW-620 colon, with A549 NSCLC, with MCF7 breast, with SK-MEL-28 melanoma, with OVCAR-3 ovarian and with NCI-H226 lung was over 100 µM throughout. Besides, the TGI with SF-539 CNS and in the assay with OVCAR-5 ovarian was over 100 µM throughout.

As for `CCOC(=O)C1C(c2ccc(OC)cc2)c2c([nH][nH]c2=O)CC1(O)OCC` (stereo unspecified), the TGI in the assay on OVCAR-4 ovarian, in the assay on SW-620 colon, in the assay on A549 NSCLC, with MCF7 breast, in the assay on SK-MEL-28 melanoma and in the assay on OVCAR-3 ovarian was over 100 µM each time. In addition, the TGI in the assay with MALME-3M melanoma, with SF-539 CNS, with OVCAR-5 ovarian and with HCC-2998 colon was over 100 µM each time.

Consider `[N-]=[NH+]CC(=O)OC(COCc1ccccc1)COCc1ccccc1`, for which the TGI with OVCAR-4 ovarian, in the assay with SW-620 colon, with MCF7 breast, in the assay with RXF 393 renal, in the assay on SK-MEL-28 melanoma and in the assay with OVCAR-3 ovarian was over 100 µM each time. Besides, the TGI in the assay on MALME-3M melanoma, in the assay on NCI-H226 lung, in the assay with OVCAR-5 ovarian and with HCC-2998 colon was over 100 µM each time.

As to `CCOC(=O)C(NC(=O)CC(C)C)(Nc1ccc(S(=O)(=O)Nc2nc(C)cc(C)n2)cc1)C(F)(F)F` (stereo unspecified), the TGI in the assay on OVCAR-4 ovarian, with SW-620 colon, in the assay on A549 NSCLC, in the assay with RXF 393 renal, with SK-MEL-28 melanoma and with OVCAR-3 ovarian was over 100 µM throughout. The TGI is over 100 µM in the assay on MALME-3M melanoma; over 100 µM with NCI-H226 lung; over 100 µM in the assay on SF-539 CNS; over 100 µM with OVCAR-5 ovarian; 99.2 µM in the assay with HCC-2998 colon.

For `O=c1c2cccnc2cc(-c2ccccc2)n1CCO`, the TGI with OVCAR-4 ovarian, in the assay on SW-620 colon, with A549 NSCLC, in the assay on MCF7 breast, in the assay with RXF 393 renal and in the assay on SK-MEL-28 melanoma was over 100 µM in each case. Moreover, the TGI with OVCAR-3 ovarian, with MALME-3M melanoma, with NCI-H226 lung, in the assay with OVCAR-5 ovarian and with HCC-2998 colon was over 100 µM throughout.

On to `COc1cc(Nc2cnc3cc(F)c(F)cc3n2)cc(OC)c1`, for which the TGI is over 100 µM in the assay with OVCAR-4 ovarian; over 100 µM with SW-620 colon; over 100 µM in the assay on A549 NSCLC; over 100 µM with MCF7 breast; 51.2 µM in the assay on RXF 393 renal; over 100 µM in the assay on SK-MEL-28 melanoma. Further, the TGI in the assay on OVCAR-3 ovarian, in the assay on MALME-3M melanoma, in the assay on NCI-H226 lung, in the assay with SF-539 CNS and in the assay with OVCAR-5 ovarian was over 100 µM throughout.

Turning to `Cc1nn(-c2ccccc2)c2[nH]c(=S)cnc12`, the TGI with OVCAR-4 ovarian, in the assay with SW-620 colon, in the assay on A549 NSCLC, in the assay on MCF7 breast, with RXF 393 renal and in the assay with SK-MEL-28 melanoma was over 100 µM in each case. For the same compound, the TGI with OVCAR-3 ovarian, in the assay on MALME-3M melanoma, in the assay on NCI-H226 lung, with SF-539 CNS and with OVCAR-5 ovarian was over 100 µM each time.

Consider `CN(C(=O)Cc1ccc(Cl)c(Cl)c1)[C@@H]1CCCC[C@H]1[N+]1(C)CC=CC1`, for which the TGI in the assay on OVCAR-4 ovarian, with SW-620 colon, with A549 NSCLC, in the assay on MCF7 breast, in the assay on RXF 393 renal and with SK-MEL-28 melanoma was over 100 µM throughout. In addition, the TGI with OVCAR-3 ovarian, with MALME-3M melanoma, in the assay on NCI-H226 lung, with OVCAR-5 ovarian and with HCC-2998 colon was over 100 µM throughout.

Consider `CCOC(=O)c1c(-c2ccc(O)c(OC)c2)c(C#N)c(=S)n(C2OC(COC(C)=O)C(OC(C)=O)C(OC(C)=O)C2OC(C)=O)c1-c1ccccc1` (stereo unspecified), for which the TGI with OVCAR-4 ovarian, with SW-620 colon, with A549 NSCLC, with MCF7 breast, with RXF 393 renal and with SK-MEL-28 melanoma was over 100 µM in each case. The TGI in the assay on OVCAR-3 ovarian is 48.4 µM and > 100 µM; in the assay on MALME-3M melanoma, 50.3 µM and > 100 µM; in the assay with OVCAR-5 ovarian, over 100 µM; with HCC-2998 colon, over 100 µM. Besides, the GI50 with MCF7 breast is 22.4 µM and 63.3 µM; in the assay with OVCAR-3 ovarian, 21.6 µM and 56.8 µM; with MALME-3M melanoma, 20.9 µM and 62.3 µM; in the assay with HCC-2998 colon, 35 µM and 90.1 µM.

As to `CCCCCCCCCCCCC(O)C1CCC(C(O)CCCCCCC(O)CCCCCCCC2=CC(C)OC2=O)O1` (stereo unspecified), the TGI in the assay with OVCAR-4 ovarian is over 100 µM; in the assay with SW-620 colon, over 100 µM; in the assay on A549 NSCLC, over 100 µM; in the assay on MCF7 breast it was over 100 µM; in the assay with RXF 393 renal it was 83 µM; in the assay with SK-MEL-28 melanoma it was over 100 µM. Also, the TGI in the assay with OVCAR-3 ovarian is 45.7 µM; with MALME-3M melanoma it was 56.7 µM; in the assay on NCI-H226 lung, over 100 µM; in the assay with OVCAR-5 ovarian it was over 100 µM; in the assay on HCC-2998 colon, 82.5 µM. The GI50 with SW-620 colon was 45.8 µM; in the assay with A549 NSCLC it was 21.7 µM; in the assay on MCF7 breast it was 23.6 µM; in the assay on OVCAR-5 ovarian, over 100 µM.

Regarding `CCN(CC)C(=S)SNCc1ccc(S(N)(=O)=O)cc1`, the TGI in the assay on OVCAR-4 ovarian was 48.1 µM; with SW-620 colon it was over 50.1 µM; in the assay on A549 NSCLC, 26.3 µM; in the assay on RXF 393 renal, 45.9 µM; in the assay on SK-MEL-28 melanoma, over 48.9 µM; in the assay with OVCAR-3 ovarian, 27.5 µM. For the same compound, the TGI is 30.9 µM in the assay with MALME-3M melanoma; over 63.2 µM in the assay with NCI-H226 lung; 32.1 µM in the assay with SF-539 CNS; 29.9 µM in the assay with OVCAR-5 ovarian; over 100 µM with HCC-2998 colon.

As to `COc1cc(NP(=O)(Oc2ccccc2)Oc2ccccc2)ccc1Nc1c2ccccc2nc2c1[nH]c1ccccc12`, the TGI in the assay on OVCAR-4 ovarian is 15.3 µM; in the assay with SW-620 colon, 12.9 µM; with A549 NSCLC it was 2.22 µM; in the assay on MCF7 breast, 25.7 µM; in the assay with RXF 393 renal, 14.1 µM; in the assay with SK-MEL-28 melanoma, 48.2 µM. For the same compound, the TGI with OVCAR-3 ovarian is 4.82 µM; in the assay on MALME-3M melanoma it was 29.1 µM; in the assay with NCI-H226 lung, 20.2 µM; in the assay with OVCAR-5 ovarian, 30.2 µM; in the assay with HCC-2998 colon it was 23.2 µM.

For `Fc1ccccc1-c1nn2c(C34CC5CC(CC(C5)C3)C4)nnc2s1`, the TGI in the assay on OVCAR-4 ovarian, in the assay on SW-620 colon, in the assay with A549 NSCLC, with RXF 393 renal, with SK-MEL-28 melanoma and with OVCAR-3 ovarian was over 100 µM in each case. In addition, the TGI in the assay with MALME-3M melanoma, in the assay on NCI-H226 lung, with SF-539 CNS, in the assay with OVCAR-5 ovarian and with HCC-2998 colon was over 100 µM throughout.

Turning to `COc1ccc2c(c1)CCc1[nH]c3ccccc3c1CCCC2`, the TGI in the assay with OVCAR-4 ovarian, in the assay with SW-620 colon, in the assay with A549 NSCLC, in the assay on MCF7 breast, with SK-MEL-28 melanoma and with OVCAR-3 ovarian was over 10 µM each time. The TGI in the assay with MALME-3M melanoma, in the assay with SF-539 CNS, in the assay with OVCAR-5 ovarian and in the assay on HCC-2998 colon was over 10 µM in each case.
